Values belong to the compound of their own block, whether it stands above or below them.
How the values were obtained:
[1] = target: T1, Aurora-A (Homo sapiens, UniProt O14965); assay: in vitro kinase binding, Aurora-A
T1 sequence (O14965 1-403): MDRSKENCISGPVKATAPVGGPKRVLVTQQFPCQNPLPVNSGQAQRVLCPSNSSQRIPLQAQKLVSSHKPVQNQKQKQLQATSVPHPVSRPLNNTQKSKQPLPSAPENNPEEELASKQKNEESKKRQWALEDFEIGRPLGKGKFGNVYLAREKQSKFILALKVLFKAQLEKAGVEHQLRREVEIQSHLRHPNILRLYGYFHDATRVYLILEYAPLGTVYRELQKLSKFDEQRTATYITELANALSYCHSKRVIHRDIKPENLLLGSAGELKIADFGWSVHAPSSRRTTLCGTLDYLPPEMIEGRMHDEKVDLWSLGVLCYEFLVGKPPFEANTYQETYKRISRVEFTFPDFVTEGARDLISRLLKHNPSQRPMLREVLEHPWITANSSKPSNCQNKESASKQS

[2] = target: CDK4-CyclinD1 (Homo sapiens, UniProt P11802); assay: in vitro kinase binding, CDK4-CyclinD1
CDK4-CyclinD1, sequence (P11802 whole entry): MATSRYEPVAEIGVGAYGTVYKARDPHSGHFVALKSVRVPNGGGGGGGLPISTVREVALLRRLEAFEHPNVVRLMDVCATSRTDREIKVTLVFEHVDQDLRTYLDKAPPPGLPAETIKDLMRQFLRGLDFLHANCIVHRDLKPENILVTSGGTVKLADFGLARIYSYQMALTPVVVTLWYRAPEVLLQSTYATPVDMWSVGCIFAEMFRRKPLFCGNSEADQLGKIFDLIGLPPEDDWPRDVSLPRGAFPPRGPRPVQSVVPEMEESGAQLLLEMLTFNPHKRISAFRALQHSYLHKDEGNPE
CDK4-CyclinD1, sequence (P24385 whole entry partner): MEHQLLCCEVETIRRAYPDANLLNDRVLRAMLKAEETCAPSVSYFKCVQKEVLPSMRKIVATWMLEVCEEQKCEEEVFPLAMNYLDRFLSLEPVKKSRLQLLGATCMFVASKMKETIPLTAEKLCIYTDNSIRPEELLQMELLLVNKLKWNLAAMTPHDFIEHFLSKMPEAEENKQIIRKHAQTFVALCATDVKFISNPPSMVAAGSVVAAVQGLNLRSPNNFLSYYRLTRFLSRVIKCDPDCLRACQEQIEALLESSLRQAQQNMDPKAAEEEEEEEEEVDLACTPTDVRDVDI

[3] = target: T2, CDK4 (Homo sapiens, UniProt P11802); assay: immunoblotting, degradation of CDK4 in MCF-7 cells; format: cell-based
T2 construct: endogenous in cells; host or cells: MCF-7
T2 sequence (P11802 whole entry): as the sequence (P11802 whole entry) above
Procedure: (§1) MCF-7 cells were cultured in complete Dulbecco's modified Eagle medium (DMEM) supplemented with 10% (vol/vol) heat-inactivated fetal bovine serum (FBS), 100 U/ml penicillin and 100 μg/ml streptomycin. HCC38 cells were cultured in RPMI medium with 10% FBS, 100 U/ml penicillin and 100 μg/ml streptomycin. Huh7 cells were cultured in DMEM medium with 10% FBS, 100 U/ml penicillin and 100 μg/ml streptomycin supplemented with 1% MEM non-essential amino acids (SIGMA M7145). IMR-32 and SK-N-BE(2) cells were cultured in Eagle's Minimum Essential Medium (EMEM) with 10% FBS, 100 U/ml penicillin and 100 μg/ml streptomycin. All the cell lines were maintained in a humidified incubator at 37° C. and 5% CO2.
(§2) Cells were treated with 13 and other compounds at indicated concentrations and incubation time. Cells were gently rinsed once with ice-cold PBS and then lysed in radioimmnuoprecipitation assay (RIPA) lysis buffer (50 mM Tris-HCl pH 7.4, 150 mM NaCl, 1% NP-40, 0.5% sodium deoxycholate, 0.1% SDS, 5 mM EDTA, 1 mM EGTA) supplemented with 1% protease inhibitor cocktail (Roche cOmplete) and 1% phosphatase inhibitor cocktail (PhosSTOP). Cell lysates were incubated on ice for 15 mins and then kept at −80° C. before further use. The lysates were thawed on ice and the supernatants were collected after centrifugation (@11,000 rpm) for 15 min at 4° C. The protein concentration was determined using the Pierce BCA protein Assay kit and normalized before the samples were reduced in […] sample buffer and denatured at 95° C. in a heated block for 10 mins. An equal amount of protein samples (10-30 μg per lane) were resolved using 4-20% Tris-glycine gels and transferred onto PVDF blotting membranes. Primary antibodies CDK4 (DCS-35, 1:2000), N-Myc (B8.4.B, 1:5000), p21 (F-5, 1:500), p53 (DO-1, 1:1000), Aurora-A (1G4, 1:1000), β-actin (A1978, 1:2000) were used for immunoblotting. The images were detected using Li-Cor Odyssey Fc imaging system and the immunoblots were quantified by densitometry using ImageJ software.

[4] = target: T1, Aurora-A; assay: immunoblotting, degradation of Aurora-A in MCF-7 cells; format: cell-based; set-up: endogenous in cells; host or cells: MCF-7
Procedure: as §1, §2

[5] = tested on: MCF-7 breast cancer cells; assay: cell cycle analysis using propidium iodide DNA staining; format: cell-based; details: compound treatment for 48 hours
[6] = tested on: p53 and p21; assay: immunoblotting, abundance of downstream signaling proteins in MCF-7 cells; format: cell-based; details: 4 hours and 24 hours
Procedure: as §1
(§3) Cells were treated with 13 and other compounds at indicated concentrations and incubation time. […] The protein concentration was determined using the Pierce BCA protein Assay kit and normalized before the samples were reduced in […] sample buffer and denatured at 95° C. in a heated block for 10 mins. […] The images were detected using Li-Cor Odyssey Fc imaging system and the immunoblots were quantified by densitometry using ImageJ software.

[7] = tested on: N-Myc; assay: immunoblotting, N-Myc depletion in MYCN amplified neuroblastoma cell lines; format: cell-based; details: IMR-32 and SK-N-BE(2) cells, 0.5 μM, after 24 hours
Procedure: as §1, §3

[8] = target: T3, Aurora-A and N-Myc (Homo sapiens, UniProt O14965); assay: immunoblotting, dose-dependent degradation of Aurora-A and N-Myc in SK-N-BE(2) cells; format: cell-based; details: for degradation of Aurora-A and N-Myc (in words): 24 hours, dose series
T3 construct: endogenous in cells; host or cells: SK-N-BE(2)
T3 sequence (O14965 1-403): T1 sequence (O14965 1-403)
Procedure: as §1, §2

[9] = tested on: MCF-7, HCC38, Huh7, IMR-32 and SK-N-BE(2) cells; assay: Alamar blue cellular viability assay, all tested cell lines; format: cell-based; details: range over all tested cell lines; read-out: IC50, cytotoxicity
Procedure: as §1
(§4) Cancer cells were seeded in media (50 μL) 24 h prior to treatment with compounds in 96-well plates. For MCF-7 and Huh7 cells, the seeding density is 2,500 cells/well; for HCC38, the density is 2,000 cells/well; and for IMR-32 and SK-N-BE(s), the density is 5,000 cells/well. Compounds were serially diluted in pre-warmed media and dosed to cells (final volume=100 μL; final DMSO concentration=0.5%). […] After 2 hours treatment period, the fluorescence of each well was read using a BioTek Synergy H1 plate reader. […]

[10] = tested on: IMR-32 and SK-N-BE(2) cells; assay: Alamar blue cellular viability assay, MYCN amplified neuroblastoma cells; format: cell-based; details: 3 days
Procedure: as §1, §4

[11] = tested on: Cyclin D and CDK4 complexes; assay: Western blot, degradation of Cyclin D and CDK4 complexes in MCF-7 cells; format: cell-based; details: MCF-7 breast cancer cells
[12] = tested on: MCF-7 cells; assay: Alamar blue cellular viability assay, MCF-7; format: cell-based
Procedure: as §1, §4

[13] = tested on: HCC38; assay: Alamar blue cellular viability assay, HCC38; format: cell-based; details: HCC38, ribociclib-resistant, 5 days
Procedure: as §1, §4

[14] = tested on: Huh7; assay: Alamar blue cellular viability assay, Huh7; format: cell-based; details: Huh7, ribociclib-resistant, 5 days
Procedure: as §1, §4

[15] = tested on: cyclin D1; assay: immunoblotting, degradation of cyclin D1 in MCF-7 cells; format: cell-based
Procedure: as §1, §3

binding affinity with Aurora-A (in words) [1]: weak binding | binding to CDK4 (in words) [2]: weak binding | degradation of CDK4 (in words) [3]: weakly active | degradation of Aurora-A (in words) [4]: weakly active
SMILES: CC(=O)c1c(C)c2cnc(Nc3ccc(C(=O)NCCCCCCOc4cccc5c4C(=O)N(C4CCC(=O)NC4=O)C5=O)cc3)nc2n(C2CCCC2)c1=O (stereo not drawn) [Compound 16, 4-((6-acetyl-8-cyclopentyl-5-methyl-7-oxo-7,8-dihydropyrido[2,3-d]pyrimidin-2-yl)amino)-N-(6-((2-(2,6-dioxopiperidin-3-yl)-1,3-dioxoisoindolin-4-yl)oxy)hexyl)benzamide]

Kd [1]: 380 nM
SMILES: CN(C)C(=O)c1cc2cnc(Nc3ccc(C(=O)NCCCCCCOc4cccc5c4C(=O)N(C4CCC(=O)NC4=O)C5=O)cn3)nc2n1C1CCCC1 (stereo not drawn) [Compound 14, 7-cyclopentyl-2-((5-((6-((2-(2,6-dioxopiperidin-3-yl)-1,3-dioxoisoindolin-4-yl)oxy)hexyl)carbamo-yl)pyridin-2-yl)amino)-N,N-dimethyl-7H-pyrrolo[2,3-d]pyrimidine-6-carboxamide]

binding affinity with Aurora-A (in words) [1]: weak binding affinity | Kd [2]: 23 nM | degradation of CDK4 (in words) [3]: strong potency | degradation of Aurora-A (in words) [4]: strong potency
SMILES: Cc1nc2c(F)cc(-c3nc(Nc4ccc(C(=O)NCCCCCCOc5cccc6c5C(=O)N(C5CCC(=O)NC5=O)C6=O)cc4)ncc3F)cc2n1C(C)C (stereo not drawn) [Compound 17, N-(6-((2-(2,6-dioxopiperidin-3-yl)-1,3-dioxoisoindolin-4-yl)oxy)hexyl)-4-((5-fluoro-4-(4-fluoro-1-isopropyl-2-methyl-1H-benzo[d]imidazol-6-yl)pyrimidin-2-yl)amino)benzamide]
degradation of cyclin D1 (in words) [15]: strong potency

Further lines, the compound ahead of its results:

SMILES: CN(C)C(=O)c1cc2cnc(Nc3ccc(N4CCNCC4)cn3)nc2n1C1CCCC1 [ribociclib, reference compound]
cell cycle effect [5]: induces G0/G1 arrest

SMILES: CN(C)C(=O)c1cc2cnc(Nc3ccc(C(=O)NCCCCCCOc4cccc5c4C(=O)N(C4CCC(=O)NC4=O)C5=O)cc3)nc2n1C1CCCC1 (stereo not drawn) [Compound 13, 7-cyclopentyl-2-((4-((6-((2-(2,6-dioxopiperidin-3-yl)-1,3-dioxoisoindolin-4-yl)oxy)hexyl)carbamoyl)phenyl)amino)-N,N-dimethyl-7H-pyrrolo[2,3-d]pyrimidine-6-carboxamide]
binding affinity with Aurora-A (in words) [1]: maintains its binding affinity to Aurora-A | degradation of CDK4 (in words) [3]: no obvious degradation of CDK4 was observed | cell cycle effect [5]: potent G2/M phase arrest | effect on p21 abundance [6]: increased the abundance | effect on p53 [6]: significantly stabilized p53 | depletion of N-Myc [7]: almost complete depletion of N-Myc | potency for depleting N-Myc protein compared to MLN8237 and CD532 [8]: more potent | degradation of Aurora-A and N-Myc (in words) [8]: induced the degradation of Aurora-A and N-Myc in a dose-dependent manner | IC50 [9]: 18 to 135 nM | cytotoxic potency compared to CD532 [10]: more potent than CD532 | degradation of Aurora-A (in words) [4]: rapidly and potently induce the degradation of Aurora-A | half-life of Aurora-A ([4]; 100 nM compound): 1.9 h | degradation potency for Aurora-A at high concentration (hook effect) ([4]; 2 μM): lower degradation potency | DC50 ([4]; 4 hours, read-out: DC50 (half-maximal degradation concentration) for Aurora-A): 20 nM | Dmax ([4]; MCF7, after 4 hours, read-out: Dmax (maximum degradation efficacy) for Aurora-A): ~94%

SMILES: CN(C)C(=O)c1cc2cnc(Nc3ccc(C(=O)NCCCCCCNc4cccc5c4C(=O)N(C4CCC(=O)NC4=O)C5=O)cc3)nc2n1C1CCCC1 (stereo not drawn) [Compound 22, 7-cyclopentyl-2-((4-((6-((2-(2,6-dioxopiperidin-3-yl)-1,3-dioxoisoindolin-4-yl)amino)hexyl)carbamoyl)-phenyl)amino)-N,N-dimethyl-7H-pyrrolo[2,3-d]pyrimidine-6-carboxamide]
degradation of Cyclin D and CDK4 complexes [11]: degrades Cyclin D and CDK4 complexes in a dose-dependent and time-dependent manner

SMILES: Cc1nc2c(F)cc(-c3nc(Nc4ccc(NC(=O)CCCCCCOc5cccc6c5C(=O)N(C5CCC(=O)NC5=O)C6=O)cc4)ncc3F)cc2n1C(C)C (stereo not drawn) [Compound 18, 7-((2-(2,6-dioxopiperidin-3-yl)-1,3-dioxoisoindolin-4-yl)oxy)-N-(4-((5-fluoro-4-(4-fluoro-1-isopropyl-2-methyl-1H-benzo[d]imidazol-6-yl)pyrimidin-2-yl)amino)phenyl)heptanamide]
cytotoxicity in MCF-7 cells (in words) ([12]; palbociclib- and abemaciclib-analogue-based degraders): the most potent compound

SMILES: CNC(=O)c1ccc(Nc2ncc3cc(C(=O)N(C)C)n(C4CCCC4)c3n2)cc1 [Compound 11, 7-cyclopentyl-N,N-dimethyl-2-((4-(methylcarbamoyl)phenyl)amino)-7H-pyrrolo[2,3-d]pyrimidine-6-carboxamide]
Kd [1]: 0.85 nM | Kd [2]: 3 nM

SMILES: CN(C)C(=O)c1cc2cnc(Nc3ccc(C(=O)NCCCCCCOc4cccc5c4C(=O)N(C4CCC(=O)N(C)C4=O)C5=O)cc3)nc2n1C1CCCC1 (stereo not drawn) [Compound 15, 7-cyclopentyl-N,N-dimethyl-2-((4-((6-((2-(1-methyl-2,6-dioxopiperidin-3-yl)-1,3-dioxoisoindolin-4-yl)oxy)hexyl)carbamoyl)phenyl)amino)-7H-pyrrolo[2,3-d]pyrimidine-6-carboxamide]
binding affinity with Aurora-A (in words) [1]: maintains similar binding profile as the active form 13 | degradation of Aurora-A and N-Myc (in words) [8]: did not affect the protein abundance even at the highest test concentration | potency shift from 13 (cytotoxicity) ([12]; MCF-7 cells, 5 days): 4,4 fold | potency shift from 13 (cytotoxicity) [13]: 8.2 fold | potency shift from 13 (cytotoxicity) [14]: 20.8 fold

SMILES: CNC(=O)c1ccc(Nc2ncc3cc(C(=O)N(C)C)n(C4CCCC4)c3n2)nc1 [Compound 12, 7-cyclopentyl-N,N-dimethyl-2-((5-(methylcarbamoyl)pyridin-2-yl)amino)-7H-pyrrolo[2,3-d]pyrimidine-6-carboxamide]
binding affinity with Aurora-A (in words) [1]: significant decrease of binding affinity with Aurora-A
